Test results taken from ChEMBL document CHEMBL1141422, “Isolation and structures of erylosides from the Caribbean sponge Erylus formosus” (J Nat Prod, 2007).
Active and inactive are the calls of the source. The calls are words filed in the database; no cut-off is given here.

Legend:
[1] = Activation of calcium influx into mouse splenocytes at 100 ug/ml relative to control; assay type: functional, cell-based; settings: Splenocyte
Ehrlich = assay: Induction of apoptosis in mouse Ehrlich carcinoma cells at 100 ug/ml; assay type: functional, cell-based

With `CC(C)=CCC[C@@H](C)[C@H]1CC[C@@]2(C(=O)O)C3=C(CC[C@]12C)[C@@]1(C)CC[C@H](O[C@@H]2OC[C@H](O)[C@H](O)[C@H]2O[C@@H]2O[C@H](CO)[C@H](O)[C@H](O)[C@H]2O)C(C)(C)[C@@H]1CC3` as the compound, how does the Activity [1] read?
Its Activity is 130%.

For `C=C(C)[C@@H](O)CC[C@@H](C)[C@H]1CC[C@@]2(C(=O)O)C3=C(CC[C@]12C)[C@@]1(C)CC[C@H](O[C@@H]2OC[C@H](O)[C@H](O)[C@H]2O[C@@H]2O[C@H](CO)[C@H](O)[C@H](O)[C@H]2O)C(C)(C)[C@@H]1CC3`, which Activity (Ehrlich) is on record?
The Activity was “Active”.

Which Activity [1] does the source give for `C=C(CC[C@@H](C)[C@H]1CC[C@@]2(C(=O)O)C3=C(CC[C@]12C)[C@@]1(C)CC[C@H](O[C@@H]2OC[C@H](O)[C@H](O)[C@H]2O[C@@H]2O[C@H](CO)[C@H](O)[C@H](O)[C@H]2O)C(C)(C)[C@@H]1CC3)C(C)C` here?
The Activity was 130%.
